pIC50, pKi: −log10 of the molar value. Activity calls are given as the source filed them. The calls are words filed in the database; no cut-off is given here.
How the values were obtained:
[1] = target: E3 ubiquitin-protein ligase Mdm2 (Homo sapiens, UniProt Q00987); assay: Binding affinity to MDM2 (1 to 118 residues) (unknown origin) assessed as inhibition constant incubated for 1 hr measured by fluorescence polarization assay
[2] = tested on: HCT-116; assay: Antiproliferative activity against human HCT-116 cells overexpressing MDM2 assessed as cell growth inhibition incubated for 72 hrs by CCK-8 assay; assay type: functional, cell-based; conditions: HCT-116, 72 h
[3] = tested on: SH-SY5Y; assay: Antiproliferative activity against human SH-SY5Y cells overexpressing MDMX assessed as cell growth inhibition incubated for 72 hrs by CCK-8 assay; assay type: functional, cell-based
[4] = target: T1, Protein Mdm4 (Homo sapiens, UniProt O15151); assay: Binding affinity to MDMX (1 to 118 residues) (unknown origin) assessed as inhibition constant incubated for 1 hr measured by fluorescence polarization assay
T1 sequence (O15151 whole entry): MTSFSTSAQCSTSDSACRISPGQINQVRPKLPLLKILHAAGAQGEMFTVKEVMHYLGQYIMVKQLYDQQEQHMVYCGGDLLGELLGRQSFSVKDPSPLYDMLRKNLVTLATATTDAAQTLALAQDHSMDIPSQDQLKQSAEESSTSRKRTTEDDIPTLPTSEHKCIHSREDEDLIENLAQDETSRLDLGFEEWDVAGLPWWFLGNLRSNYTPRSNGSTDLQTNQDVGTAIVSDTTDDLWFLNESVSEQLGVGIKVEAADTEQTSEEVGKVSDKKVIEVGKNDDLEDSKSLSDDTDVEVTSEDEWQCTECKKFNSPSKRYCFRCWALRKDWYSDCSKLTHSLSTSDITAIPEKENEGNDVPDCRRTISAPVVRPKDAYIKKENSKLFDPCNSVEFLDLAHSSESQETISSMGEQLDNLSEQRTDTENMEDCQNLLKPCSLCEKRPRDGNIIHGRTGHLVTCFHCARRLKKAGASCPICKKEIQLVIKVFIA

[5] = Antiproliferative activity against human HCT116-p53-null cells overexpressing MDMX assessed as cell growth inhibition incubated for 72 hrs by CCK-8 assay; assay type: functional, cell-based
[6] = tested on: SJSA-1; assay: Antiproliferative activity against human SJSA-1 cells overexpressing MDM2 assessed as cell growth inhibition incubated for 72 hrs by CCK-8 assay; assay type: functional, cell-based; conditions: SJSA-1, 72 h
[7] = Cytotoxicity against human BEAS-2B cells incubated for 72 hrs by CCK-8 assay; assay type: toxicity, cell-based
[8] = Cytotoxicity against human LO2 cells incubated for 72 hrs by CCK-8 assay; assay type: toxicity, cell-based, L02
[9] = tested on: HCT-116; assay: Inhibition of colony formation in human HCT-116 cells incubated at 0.6 uM for 8 to 15 days measured by crystal violet staining based microscopic analysis; assay type: functional, cell-based; conditions: time 8-15 day
[10] = tested on: SH-SY5Y; assay: Inhibition of colony formation in human SH-SY5Y cells incubated at 0.6 uM for 8 to 15 days measured by crystal violet staining based microscopic analysis; assay type: functional, cell-based; conditions: time 8-15 day
[11] = tested on: HCT-116; assay: Inhibition of cell migration in human HCT-116 cells measured using transwell chamber by crystal violet staining based microscopic analysis; assay type: functional; conditions: dose 0.2-0.6 µM
[12] = tested on: SH-SY5Y; assay: Inhibition of cell migration in human SH-SY5Y cells measured using transwell chamber by crystal violet staining based microscopic analysis; assay type: functional; conditions: dose 0.2-0.6 µM
[13] = tested on: HCT-116; assay: Inhibition of cell invasion in human HCT-116 cells measured using transwell chamber by crystal violet staining based microscopic analysis; assay type: functional; conditions: dose 0.2-0.6 µM
[14] = tested on: SH-SY5Y; assay: Inhibition of cell invasion in human SH-SY5Y cells measured using transwell chamber by crystal violet staining based microscopic analysis; assay type: functional; conditions: dose 0.2-0.6 µM
[15] = tested on: HCT-116; assay: Antiproliferative activity against human HCT-116 cells overexpressing MDM2 assessed as cell growth inhibition incubated at 10 uM for 72 hrs by CCK-8 assay relative to control; assay type: functional
[16] = tested on: SH-SY5Y; assay: Antiproliferative activity against human SH-SY5Y cells overexpressing MDMX assessed as cell growth inhibition incubated at 10 uM for 72 hrs by CCK-8 assay relative to control; assay type: functional

Sequence of E3 ubiquitin-protein ligase Mdm2 (Q00987 whole entry, the tested form may be a part): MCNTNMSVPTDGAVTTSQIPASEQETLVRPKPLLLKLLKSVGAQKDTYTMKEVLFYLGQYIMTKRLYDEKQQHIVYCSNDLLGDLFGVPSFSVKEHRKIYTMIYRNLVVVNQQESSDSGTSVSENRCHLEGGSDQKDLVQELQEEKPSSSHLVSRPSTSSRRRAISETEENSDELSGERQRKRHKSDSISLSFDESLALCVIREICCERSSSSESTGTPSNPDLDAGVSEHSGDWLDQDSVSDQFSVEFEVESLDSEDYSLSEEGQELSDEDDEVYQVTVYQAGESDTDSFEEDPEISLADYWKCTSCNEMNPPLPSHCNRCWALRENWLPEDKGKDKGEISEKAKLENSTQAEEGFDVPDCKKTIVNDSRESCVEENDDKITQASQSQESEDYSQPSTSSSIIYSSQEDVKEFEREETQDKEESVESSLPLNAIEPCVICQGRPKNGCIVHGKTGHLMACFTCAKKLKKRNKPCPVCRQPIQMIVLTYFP

CN(C)C1CCN(C(=O)CCC(=O)N(c2ccc(Cl)cc2)C(C(=O)c2ccc(Cl)cc2)c2ccc(F)cc2Cl)CC1 (stereo unspecified) showed a pKi [1] of 6.55, a pIC50 [2] of 6.14 and a pIC50 [3] of 6.16. The pKi [4] was 5.46, the pIC50 [5] was 4.87 and the pIC50 [6] was 6.19. For the same compound, the IC50 at 72 h [7] was 16.3 µM, the IC50 at 72 h [8] was 12.7 µM and the inhibition [9] was “Active”. The inhibition [10] was “Active”, the inhibition [11] was “Dose-Dependent Effect” and the inhibition [12] was “Dose-Dependent Effect”. For the same compound, the inhibition [13] was “Dose-Dependent Effect” and the inhibition [14] was “Dose-Dependent Effect”.

With CCN1CCN(C(=O)CCC(=O)N(c2ccc(Cl)cc2)C(C(=O)c2ccc(Cl)cc2)c2ccc(F)cc2Cl)CC1 (stereo unspecified) the pKi [1] was 6.16, the pIC50 [2] was 5.20 and the pIC50 [3] was 5.24. The pKi [4] was 5.03, the pIC50 [5] was 4.68 and the pIC50 [6] was 5.23.

Compound COc1ccc(C2=N[C@H](c3ccc(Cl)cc3)[C@H](c3ccc(Cl)cc3)N2C(=O)N2CCNC(=O)C2)c(OC(C)C)c1 has an inhibition at 10 µM [15] of 49.2%, an inhibition at 10 µM [16] of 46.5% and a pIC50 [2] of 4.95. The pIC50 [5] was 4.53, the inhibition [9] was “Active” and the inhibition [10] was “Active”.

From ChEMBL document CHEMBL5360555, “Structure-based discovery of novel α-aminoketone derivatives as dual p53-MDM2/MDMX inhibitors for the treatment of cancer” (Eur J Med Chem, 2023)
